# Patent publication EP1660440B1, “ACYLOXYALKYL CARBAMATE PRODRUGS, METHODS OF SYNTHESIS AND USE” (priority 2003, dated 2005)
# Like-named read-outs stand apart in the source and are kept apart here.
# Tests used:
# [1] = 5 µM
# Protocol: (§2) For stability studies, prodrug (5 µM) was incubated in Caco-2 homogenate S9 fraction (0.5 mg protein per mL) for 60 min at 37°C. Concentrations of intact prodrug and released baclofen were determined at zero time and 60 minutes using LC/MS/MS.
# [2] = not given; remark: listed apart in the source
# [3] = not given; remark: listed apart in the source
# [4] = system: Pancreatin; assay: Pancreatin stability; assay type: in vitro ADME, porcine; conditions: 1 % (w/v) pancreatin, 5 µM, pH 7.5, 37 °C, after 60 min
# Protocol: (§1) Pancreatin Stability: Stability studies were conducted by incubating prodrug (5 µM) with 1 % (w/v) pancreatin (Sigma, P-1625, from porcine pancreas) in 0.025 M Tris buffer containing 0.5 M NaCl (pH 7.5) at 37 °C for 60 min. The reaction was stopped by addition of 2 volumes of methanol. After centrifugation at 14,000 rpm for 10 min, the supernatant was removed and analyzed by LC/MS/MS.
# [5] = not given; remark: listed apart in the source
# [6] = system: Caco-2 cells; conditions: human, Caco-2, 200 uM
# Protocol: For example, cellular permeability may be evaluated by examining the flux of a prodrug across a cultured polarized cell monolayer (e.g., Caco-2 cells). Caco-2 cells obtained from continuous culture (passage less than 28) were seeded at high density onto Transwell polycarbonate filters. Cells were maintained with DMEM / 10% fetal calf serum + 0.1 mM nonessential amino acids + 2 mM L-Gln, 5% CO2/ / 95% O2, 37°C until the day of the experiment. Permeability studies were conducted at pH 6.5 apically (in 50 mM MES buffer containing 1 mM CaCl2, 1mM MgCl2, 150 mM NaCl, 3 mM KCl, 1 mM NaH2PO4, 5 mM glucose) and pH 7.4 basolaterally (in Hanks' balanced salt solution containing 10 mM HEPES) in the presence of efflux pump inhibitors (250 µM MK-571, 250 µM Verapamil, 1 mM Ofloxacin). Inserts were placed in 12 or 24 well plates containing buffer and incubated for 30 min at 37C°. Prodrug (200 µM) was added to the apical or basolateral compartment (donor) and concentrations of prodrug and/or released parent drug in the opposite compartment (receiver) were determined at intervals over 1 hour using LC/MS/MS. Values of apparent permeability (Papp) were calculated using the equation: Papp = Vr (dC/dt)//(ACo) [formula]
# Here Vr is the volume of the receiver compartment in mL; dC/dt is the total flux ofprodrug and parent drug (µM/s), determined from the slope of the plot of concentration in the receiver compartment versus time; Co is the initial concentration of prodrug in µM; A is the surface area of the membrane in cm^2.
# [7] = not given; remark: listed apart in the source
# [8] = in vitro; conditions: rat
# Protocol: (§3) The stabilities of prodrugs were evaluated in one or more in vitro systems using a variety of tissue preparations following methods known in the art. The chemical stability of prodrugs in aqueous buffers at pH's of 2.0, 7.4 and 8.0 were also measured. […] Each preparation was incubated with test compound at 37°C for one hour. Aliquots (50 µL) were removed at 0, 30, and 60 min and quenched with 0.1 % trifluoroacetic acid in acetonitrile.
# [9] = in vitro; conditions: human, plasma, % of Baclofen Released
# Protocol: as §3
# [10] = in vitro; conditions: human
# Protocol: as §3
# [11] = Pancreatin stability; assay type: in vitro ADME, porcine; conditions: pig; for remaining at 1 h, 5 µM: read-out: % of Prodrug Remaining
# Protocol: as §1
# [12] = in vitro; conditions: human, caco-2 homogenate s9
# Protocol: as §2
# [13] = physchem; conditions: aqueous buffer
# Protocol: as §3
# [14] = in vitro; conditions: rat, plasma
# Protocol: as §3
# [15] = liver s9, % of Prodrug Remaining
# [16] = Human Liver S9 (0.5 mg/mL), 2.0 µM, NADPH, 37°C, after 60 min, 60 min
# [17] = Caco-2 S9 (0.5 mg protein per mL), 37°C, after 60 min, 60 min
# [18] = Rat Liver S9 (0.5 mg/mL), 2.0 µM, NADPH, 37°C, after 60 min, 60 min
# [19] = Rat Plasma, 2.0 µM, 37°C, after 60 min, 60 min
# [20] = Human Plasma, 2.0 µM, 37°C, after 60 min, 60 min
compound,measurement,setting,value
"CC(=O)OCOC(=O)NC[C@H](CC(=O)[O-])c1ccc(Cl)cc1.[Na+] [(10), Sodium 4-[(Acetoxymethoxy)carbonylamino]-(3R)-(4-chlorophenyl)-butanoate]",% of Baclofen Released,"human, s9, 1 h, 2 µM",80%
same,% of Prodrug Remaining,"human, s9, 1 h, 2 µM",1%
same,% of Baclofen Released,"[1]; human, s9, 1 h",96%
same,% of Prodrug Remaining,"[1]; human, s9, 1 h",2%
same,% of Baclofen Released,"[2]; aqueous buffer, 1 h, pH 2",1%
same,% of Prodrug Remaining,"[2]; aqueous buffer, 1 h, pH 2",100%
same,% of Baclofen Released,"[2]; aqueous buffer, 1 h, pH 7.4",3%
same,% of Prodrug Remaining,"[2]; aqueous buffer, 1 h, pH 7.4",101%
same,% of Baclofen Released,"[2]; aqueous buffer, 1 h, pH 8",9%
same,% of Prodrug Remaining,"[2]; aqueous buffer, 1 h, pH 8",98%
same,% of Baclofen Released,"[3]; rat, s9, 1 h, 2 µM",78%
same,% of Prodrug Remaining,"[3]; rat, s9, 1 h, 2 µM",0%
same,% of Baclofen Released,[4],21%
same,% of Prodrug Remaining,[4],75%
same,% of Baclofen Released,"[5]; rat, plasma, 1 h, 2 µM",15%
same,% of Prodrug Remaining,"[5]; rat, plasma, 1 h, 2 µM",85%
same,Ratio A-BB-A,[6],1.2
same,% of Baclofen Released,"[7]; human, plasma, 1 h, 2 µM",26%
same,% of Prodrug Remaining,"[7]; human, plasma, 1 h, 2 µM",64%
"O=C([O-])C[C@@H](CNC(=O)OCOC(=O)c1ccccc1)c1ccc(Cl)cc1.[Na+] [(12), Sodium 4-[(Benzoyloxymethoxy)carbonylamino]-(3R)-(4-chlorophenyl)-butanoate]",% of Baclofen Released,"human, s9, 1 h, 2 µM",100%
same,% of Prodrug Remaining,"human, s9, 1 h, 2 µM",1%
same,% of Baclofen Released,"[1]; human, s9, 1 h",100%
same,% of Prodrug Remaining,"[1]; human, s9, 1 h",2%
same,% of Baclofen Released,"[2]; aqueous buffer, 1 h, pH 2",0%
same,% of Prodrug Remaining,"[2]; aqueous buffer, 1 h, pH 2",100%
same,% of Baclofen Released,"[2]; aqueous buffer, 1 h, pH 7.4",0%
same,% of Prodrug Remaining,"[2]; aqueous buffer, 1 h, pH 7.4",100%
same,% of Baclofen Released,"[2]; aqueous buffer, 1 h, pH 8",0%
same,% of Prodrug Remaining,"[2]; aqueous buffer, 1 h, pH 8",105%
same,% of Baclofen Released,"[3]; rat, s9, 1 h, 2 µM",100%
same,% of Prodrug Remaining,"[3]; rat, s9, 1 h, 2 µM",3%
same,% of Baclofen Released,[4],77%
same,% of Prodrug Remaining,[4],15%
same,% of Baclofen Released,"[5]; rat, plasma, 1 h, 2 µM",14%
same,% of Prodrug Remaining,"[5]; rat, plasma, 1 h, 2 µM",72%
same,Ratio A-BB-A,[6],5.9
same,% of Baclofen Released,"[7]; human, plasma, 1 h, 2 µM",5%
same,% of Prodrug Remaining,"[7]; human, plasma, 1 h, 2 µM",95%
"CC(C)(C)C(=O)OCOC(=O)NC[C@H](CC(=O)[O-])c1ccc(Cl)cc1.[Na+] [(20), Sodium 4-[(Pivaloyloxymethoxy)carbonylamino]-(3R)-(4-chlorophenyl)-butanoate]",% of Baclofen Released,"human, s9, 1 h, 2 µM",100%
same,% of Prodrug Remaining,"human, s9, 1 h, 2 µM",1%
same,% of Baclofen Released,"[1]; human, s9, 1 h",100%
same,% of Prodrug Remaining,"[1]; human, s9, 1 h",1%
same,% of Baclofen Released,"[2]; aqueous buffer, 1 h, pH 2",0%
same,% of Prodrug Remaining,"[2]; aqueous buffer, 1 h, pH 2",100%
same,% of Baclofen Released,"[2]; aqueous buffer, 1 h, pH 7.4",0%
same,% of Prodrug Remaining,"[2]; aqueous buffer, 1 h, pH 7.4",100%
same,% of Baclofen Released,"[2]; aqueous buffer, 1 h, pH 8",0%
same,% of Prodrug Remaining,"[2]; aqueous buffer, 1 h, pH 8",103%
same,% of Baclofen Released,"[3]; rat, s9, 1 h, 2 µM",75%
same,% of Prodrug Remaining,"[3]; rat, s9, 1 h, 2 µM",25%
same,% of Baclofen Released,[4],36%
same,% of Prodrug Remaining,[4],58%
same,% of Baclofen Released,"[5]; rat, plasma, 1 h, 2 µM",8%
same,% of Prodrug Remaining,"[5]; rat, plasma, 1 h, 2 µM",92%
same,Ratio A-BB-A,[6],11.8
same,% of Baclofen Released,"[7]; human, plasma, 1 h, 2 µM",9%
same,% of Prodrug Remaining,"[7]; human, plasma, 1 h, 2 µM",82%
"CCOC(C)(OCC)C(=O)OCOC(=O)NC[C@H](CC(=O)[O-])c1ccc(Cl)cc1.[Na+] [(51), Sodium 4-[(2,2-Diethoxypropanoyloxymethoxy)carbonylamino]-(3R)-(4-chlorophenyl)-butanoate]",% of Baclofen Released,"human, s9, 1 h, 2 µM",91%
same,% of Prodrug Remaining,"human, s9, 1 h, 2 µM",6%
same,% of Baclofen Released,"[1]; human, s9, 1 h",100%
same,% of Prodrug Remaining,"[1]; human, s9, 1 h",3%
same,% of Baclofen Released,"[2]; aqueous buffer, 1 h, pH 2",0%
same,% of Prodrug Remaining,"[2]; aqueous buffer, 1 h, pH 2",100%
same,% of Baclofen Released,"[2]; aqueous buffer, 1 h, pH 7.4",2%
same,% of Prodrug Remaining,"[2]; aqueous buffer, 1 h, pH 7.4",97%
same,% of Baclofen Released,"[2]; aqueous buffer, 1 h, pH 8",9%
same,% of Prodrug Remaining,"[2]; aqueous buffer, 1 h, pH 8",91%
same,% of Baclofen Released,"[3]; rat, s9, 1 h, 2 µM",103%
same,% of Prodrug Remaining,"[3]; rat, s9, 1 h, 2 µM",2%
same,% of Baclofen Released,[4],50%
same,% of Prodrug Remaining,[4],44%
same,% of Baclofen Released,"[5]; rat, plasma, 1 h, 2 µM",72%
same,% of Prodrug Remaining,"[5]; rat, plasma, 1 h, 2 µM",31%
same,Ratio A-BB-A,[6],3.0
same,% of Baclofen Released,"[7]; human, plasma, 1 h, 2 µM",50%
same,% of Prodrug Remaining,"[7]; human, plasma, 1 h, 2 µM",53%
"CCCC(OC(C)=O)OC(=O)NC[C@H](CC(=O)[O-])c1ccc(Cl)cc1.[Na+] (stereo partly drawn) [(74), Sodium 4-[(1-Acetoxybutoxy)carbonylamino]-(3R)-(4-chlorophenyl)-butanoate]",Ratio A-BB-A,[6],11.2
"CCCC(=O)OC(CC)OC(=O)NC[C@H](CC(=O)[O-])c1ccc(Cl)cc1.[Na+] (stereo partly drawn) [(78), Sodium 4-[(1-Butanoyloxypropoxy)carbonylamino]-(3R)-(4-chlorophenyl)-butanoate]",Ratio A-BB-A,[6],7.9
"CCCC(=O)O[C@H](CCC)OC(=O)NC[C@H](CC(=O)O)c1ccc(Cl)cc1 [(86), Sodium 4-{[(1S)-Butanoyloybutoxy]carbonylamino}-(3R)-(4-chlorophenyl)-butanoate]","metabolised at 1 h, 2 µM",[8]; liver s9,92%
same,"remaining at 1 h, 2 µM",[8]; [15],2%
same,"metabolised at 1 h, 2 µM",[9],13%
same,"metabolised at 1 h, 2 µM",[10]; liver s9,87%
same,"remaining at 1 h, 2 µM",[10]; [15],2%
same,"metabolised at 1 h, 5 µM","[11]; pancreatin, pH 7.5, 1 % (w/v) pancreatin, 5 µM, pH 7.5, 37 °C, after 60 min, read-out: % of Baclofen Released",76%
same,"remaining at 1 h, 5 µM","[11]; 1 % (w/v) pancreatin, 5 µM, pH 7.5, 37 °C, after 60 min",4%
same,"metabolised at 1 h, 5 µM",[12],95%
same,degraded at 1 h,"[13]; pH 2, % of Baclofen Released",0%
same,degraded at 1 h,"[13]; pH 7.4, % of Baclofen Released",1%
same,degraded at 1 h,"[13]; pH 8, % of Baclofen Released",2%
same,"metabolised at 1 h, 2 µM",[14],83%
"CC(C)C(=O)O[C@@H](OC(=O)NC[C@H](CC(=O)O)c1ccc(Cl)cc1)C(C)C [(104), 4-{[(1S)-Isobutanoyloxyisobutoxy]carbonylamino}-(3R)-(4-chlorophenyl) -butanoic Acid]",% of Baclofen Released,[16],97%
same,% of Prodrug Remaining,[16],3%
same,% of Baclofen Released,[1]; [17],83%
same,% of Prodrug Remaining,[1]; [17],17%
same,% of Prodrug Remaining,"[2]; aqueous buffer pH 7.4, 37°C, after 60 min, 60 min",100%
same,% of Baclofen Released,"[2]; aqueous buffer pH 8.0, 37°C, after 60 min, 60 min",0%
same,% of Prodrug Remaining,"[2]; aqueous buffer, pH 2, 60 min",100/0%
same,% of Prodrug Remaining,"[2]; aqueous buffer, pH 8, 60 min",100/0%
same,% of Baclofen Released,[3]; [18],97%
same,% of Prodrug Remaining,[3]; [18],3%
same,"remaining at 1 h, 5 µM","[11]; pancreatin, pH 7.5",90%
same,% of Baclofen Released,[5]; [19],85%
same,% of Prodrug Remaining,[5]; [19],14%
same,degraded at 1 h,"[13]; pH 2, % of Baclofen Released",0%
same,degraded at 1 h,"[13]; pH 7.4, % of Baclofen Released",0%
same,% of Baclofen Released,[7]; [20],2%
same,% of Prodrug Remaining,[7]; [20],98%
